# Literature values in US20220143046A1, “COMPOSITION AND METHODS FOR RECTAL DELIVERY OF 4-AAPA AND 5-ASA COMPOUNDS” (9 METERS BIOPHARMA, INC., priority 2019, published 2022).
# Tested on: toxin A-induced colonic inflammation
# Settings: rats; cited from earlier US patents and McVey et al. 2005
smiles,measurement,value
"O=C(O)Cc1ccc(/N=N/c2ccc(O)c(C(=O)O)c2)cc1 [INN-108, 5-(4-carboxymethyl-phenylazo)-2-hydroxybenzoic acid]",inhibition of toxin A-induced colonic inflammation,potent inhibitor
